SMILES strings stand for the structures.

The target in the first test is T1, human HPK1 protein (Homo sapiens, UniProt Q92918).
T1 construct: recombinant human HPK1 protein (a.a. 1-346) was expressed in Sf9 insect cells; GST (N); purchased Signalchem M23-11G; host or cells: Sf9 insect cells (baculovirus)
T1 sequence (Q92918 1-346): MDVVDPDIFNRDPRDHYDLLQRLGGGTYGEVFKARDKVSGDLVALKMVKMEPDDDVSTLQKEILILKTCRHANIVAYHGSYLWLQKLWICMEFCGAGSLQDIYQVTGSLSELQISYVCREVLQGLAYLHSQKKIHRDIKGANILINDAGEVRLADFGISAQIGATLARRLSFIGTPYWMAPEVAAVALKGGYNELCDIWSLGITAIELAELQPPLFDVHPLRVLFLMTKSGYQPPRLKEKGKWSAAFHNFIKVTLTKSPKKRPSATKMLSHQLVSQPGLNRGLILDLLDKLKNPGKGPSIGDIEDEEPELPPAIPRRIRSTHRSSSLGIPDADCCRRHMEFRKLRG
The experiment in a line: Human HPK1 protein TR-FRET assay. In kind it is biochemical. The settings on record: 1 mM ATP, Table 19. An outline of the steps:
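GST-tagged HPK1 (a.a. 1-346, Sf9-expressed) at 10 nM phosphorylated 100 nM ULight CREBtide with 1 mM ATP in Tris pH 7.5, MgCl2, NP-40, DTT, 1% DMSO, 60 minutes at room temperature. Phospho-Ser133 detected by Eu-antibody TR-FRET (665/615 nm ratio); IC50 from 4-parameter fit against DMSO control.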
In the case of `Cc1cc2c(Oc3ccc4c(c3)[C@H](C)N(C(=O)Nc3cnc(OC5CN(C)C5)c(C(F)(F)F)c3)CC4)ccnc2[nH]1` [VI-12], the IC50 fell in the range of 500 to 5000 nM.

Molecule `CN1CCC(Oc2ccc(NC(=O)N3CCc4ccc(Oc5ccnc6[nH]ccc56)cc4C3)cc2C(F)(F)F)CC1` [III-11] gave an IC50 of less than 500 nM.

With `C[C@H]1c2cc(Oc3ccnc4[nH]ccc34)ccc2CCN1C(=O)Nc1ccc(OC2CCN(CCO)CC2)c(C(F)(F)F)c1` [V-17], the IC50 was less than 500 nM.

In the case of `CCN1CCN(Cc2ccc(NC(=O)N3CCc4ccc(Oc5cc(C)nc6[nH]ccc56)cc4C3)cc2C(F)(F)F)CC1` [III-12], the IC50 lay within 500 to 5000 nM.

In the case of `CCN1CCN(Cc2ccc(NC(=O)N3CCc4cc(F)c(Oc5ccnc6[nH]ccc56)cc4C3C)cc2C(F)(F)F)CC1` (single isomer, unassigned) [IV-6], the IC50 was less than 500 nM.

`CCN1CCN(Cc2ccc(NC(=O)N3Cc4cc(Oc5ccnc6[nH]ccc56)c(F)cc4C(C)C3)cc2C(F)(F)F)CC1` (stereo not drawn) [compound 4, 7-((1H-pyrrolo[2,3-b]pyridin-4-yl)oxy)-N-(4-((4-ethylpiperazin-1-yl)methyl)-3-(trifluoromethyl)phenyl)-6-fluoro-4-methyl-3,4-dihydroisoquinoline-2(1H)-carboxamide] yielded an IC50 of less than 500 nM.

In turn, `Cc1cc2c(Oc3ccc4c(c3)[C@H](C)N(C(=O)Nc3cnc5c(c3)CCCN5C3CCN(C)CC3)CC4)ccnc2[nH]1` [X-8] gave an IC50 of 5000 to 10000 nM.

On to `CCN1CCN(Cc2ccc(NC(=O)N3CCc4ccc(Oc5ccnc6[nH]c(C#N)cc56)cc4[C@@H]3C)cc2C(F)(F)F)CC1` [V-10], for which the half-maximal inhibitory concentration (IC50) is less than 500 nM.

On to `CN1CCC(Oc2ccc(NC(=O)N3CCc4ccc(Oc5ncnn6cccc56)cc4C3)cc2C(F)(F)F)CC1` [II-16], for which the IC50 is 500 to 5000 nM.

The molecule `Cc1cc2c(Oc3ccc4c(c3)[C@H](C)N(C(=O)Nc3cnc(OC5CCCN(C)C5)c(C(F)(F)F)c3)CC4)ccnc2[nH]1` (mixture of isomers) [VI-6] registered an IC50 of 500 to 5000 nM.

`CCN1CCN(Cc2ccc(NC(=O)N3Cc4cc(Oc5ccnc6[nH]c(C)cc56)ccc4C(C)C3)cc2C(F)(F)F)CC1` (stereo not drawn) [IV-17] came in with an IC50 of less than 500 nM.

For `CC1CN(C(=O)Nc2cnc(OC3CCN(C)CC3)c(C(F)(F)F)c2)Cc2cc(Oc3ccnc4[nH]ncc34)cnc21` (stereo not drawn) [VII-10], the IC50 was less than 500 nM.

`CCN1CCN(Cc2ccc(NC(=O)N3CCc4cc(F)c(Oc5ccnc6[nH]c(C)cc56)cc4C3C)cc2C(F)(F)F)CC1` (single isomer, unassigned) [IV-25] displayed an IC50 of less than 500 nM.

For the molecule `CCN1CCN(Cc2ccc(NC(=O)N3CCc4cc(C#N)c(Oc5ccnc6[nH]ccc56)cc4C3C)cc2C(F)(F)F)CC1` (stereo not drawn) [IV-12], the IC50 fell in the range of 500 to 5000 nM.

`CCN1CCN(Cc2ccc(NC(=O)N3CCc4ncc(Oc5ccnc6[nH]ncc56)cc4C3C)cc2C(F)(F)F)CC1` (single isomer, unassigned) [VIII-5]: the IC50 was in the range of 500 to 5000 nM.

`CCC1c2cc(Oc3ccnc4[nH]ccc34)ccc2CCN1C(=O)Nc1ccc(CN2CCN(CC)CC2)c(C(F)(F)F)c1` (stereo not drawn) [IV-24]: the 50% inhibitory concentration (IC50) was 500 to 5000 nM.

Molecule `CCN1CCN(Cc2ccc(NC(=O)N3CCc4ccc(Oc5ncnn6cc(-c7cnn(C)c7)cc56)cc4C3)cc2C(F)(F)F)CC1` [II-2] returned an IC50 of less than 500 nM.

Regarding `CCN1CCN(Cc2ccc(NC(=O)N3CC4CCC3c3cc(Oc5ccnc6[nH]ccc56)ccc34)cc2C(F)(F)F)CC1` (stereo not drawn) [compound 14, 7-((1H-pyrrolo[2,3-b]pyridin-4-yl)oxy)-N-(4-((4-ethylpiperazin-1-yl)methyl)-3-(trifluoromethyl)phenyl)-1,2,3,4-tetrahydro-1,4-(epiminomethano)naphthalene-10-carboxamide], the IC50 lay within 500 to 5000 nM.

The same test, now with this note: 1 mM ATP, Table 20.
`CC[C@@H]1CN(C(=O)Nc2ccc(CN3CCN(CCO)CC3)c(C(F)(F)F)c2)Cc2cc(Oc3ccnc4[nH]c(CO)cc34)ccc21` [XV-6] came in with an IC50 of less than 500 nM.

`C[C@H]1CN(C(=O)Nc2ccc(CN3CCN(C)CC3)c(C(F)(F)F)c2)Cc2cc(Oc3ccnc4[nH]c(CO)cc34)cnc21` [XIV-78] gave an IC50 of less than 500 nM.

With `CN1CCN(Cc2ncc(NC(=O)N3CCc4ccc(Oc5c(F)cnc6[nH]c(-c7cnn(C)c7)cc56)cc4C3)cc2C(F)(F)F)CC1` [XII-1], the IC50 is less than 500 nM.

Molecule `C[C@H]1c2cc(Oc3ccnc4[nH]c(CO)cc34)ccc2CCN1C(=O)Nc1cnc(OC2CCN(C)CC2)c(C(F)(F)F)c1` [XIII-3] displayed an IC50 of less than 500 nM.

In turn, `CC[C@@H]1CN(C(=O)Nc2ccc(CN3CCN(CCO)CC3)c(C(F)F)c2)Cc2cc(Oc3ncnc4[nH]c(C5CC5)cc34)ccc21` [XV-42] displayed an IC50 of less than 500 nM.

Molecule `C[C@@H]1Cc2ccc(Oc3ccnc4[nH]c(C(=O)N(C)C)cc34)cc2CN1C(=O)Nc1cnc(CN2CCN(C)CC2)c(C(F)(F)F)c1` [XVI-10] yielded an IC50 of less than 500 nM.

On to `C[C@H]1c2cc(Oc3ccnc4[nH]c(CO)cc34)ccc2CCN1C(=O)Nc1ccc(CN2CCNCC2)c(C(F)(F)F)c1` [XIII-8], for which the IC50 is less than 500 nM.

`CN1CCN(Cc2ncc(NC(=O)N3CCc4cc(F)c(Nc5c(F)cnc6[nH]c(-c7cnn(C)c7)cc56)cc4C3)cc2C(F)(F)F)CC1` [XVII-4] registered an IC50 of less than 500 nM.

As to `Cc1cc2c(Oc3cnc4c(c3)CN(C(=O)Nc3ccc(CN5C[C@H]6C[C@@H]5CN6C)c(C(F)(F)F)c3)C[C@H]4C)ccnc2[nH]1` [XIV-99], the IC50 was in the range of 500 to 5000 nM.

In the case of `CC[C@@H]1CN(C(=O)Nc2ccc(CN3CCNCC3)c(C(F)(F)F)c2)Cc2cc(Oc3ccnc4[nH]c(C5(O)COC5)cc34)ccc21` [XV-10], the IC50 was less than 500 nM.

`C[C@H]1CN(C(=O)Nc2ccc(CN3CCN(C)CC3)c(C(F)(F)F)c2)Cc2cc(Oc3ccnc4[nH]c(C(N)=O)cc34)ccc21` [XV-31]: the IC50 was less than 500 nM.

As for `CN1CCN(Cc2ncc(NC(=O)N3CCc4ccc(Oc5c(F)cnc6[nH]c(-c7ccncc7)cc56)cc4C3)cc2C(F)(F)F)CC1` [XII-10], the IC50 is less than 500 nM.

For `CCN1CCN(Cc2ccc(NC(=O)N3CCc4ncc(Oc5ccnc6[nH]ccc56)cc4[C@H]3C)cc2C(F)(F)F)CC1` [XI-4], the IC50 is 500 to 5000 nM.

`CCC1CN(C(=O)Nc2ccc(CN3CCN(CC)CC3)c(C(F)(F)F)c2)Cc2cc(Nc3c(F)cnc4[nH]c(-c5cnn(C)c5)cc34)cnc21` (stereo not drawn) [XVII-1] registered a half-maximal inhibitory concentration (IC50) of less than 500 nM.

Molecule `C[C@@H]1Cc2ccc(Oc3c(F)cnc4[nH]c(-c5cnn(C)c5)cc34)cc2CN1C(=O)Nc1ccc(CN2CCN(C)CC2)c(C(F)(F)F)c1` [XVI-4] displayed an IC50 of less than 500 nM.

Molecule `CC[C@@H]1CN(C(=O)Nc2ccc(CN3CCNCC3)c(C(F)(F)F)c2)Cc2cc(Oc3ccnn4cc(C(=O)N(C)C)nc34)cnc21` [XIV-116] had an IC50 of 5000 to 10000 nM.

With `CC[C@@H]1CN(C(=O)Nc2ccc(CN3CCN(CC)CC3)c(C(F)(F)F)c2)Cc2cc(Oc3ccnc4[nH]c(C#N)cc34)cnc21` [XIV-19], the IC50 is less than 500 nM.

On to `CCC1CN(C(=O)Nc2ccc(CN3CCN(CC)CC3)c(C(F)(F)F)c2)Cc2cc(Oc3ccnc4[nH]c(C5=CCN(C(=O)C6CC6)CC5)cc34)cnc21` (stereo not drawn) [XIV-155], for which the IC50 is less than 500 nM.

`CC[C@H]1CN(C(=O)Nc2ccc(CN3CCN(C)CC3)c(C(F)(F)F)c2)Cc2cc(Oc3ccnc4[nH]c(C#N)cc34)ccc21` [XV-28] had an IC50 of less than 500 nM.

In the case of `CCN1CCN(Cc2ccc(NC(=O)N3CCc4ccc(Oc5c(F)cnc6[nH]c(-c7cnn(C)c7)cc56)cc4C3)cc2C(F)(F)F)CC1` [XII-15], the IC50 was less than 500 nM.

For the molecule `CCN1CCN(Cc2ccc(NC(=O)N3Cc4cc(Oc5ccnc6[nH]c(=O)[nH]c56)cnc4C(C)C3)cc2C(F)(F)F)CC1` (single isomer, unassigned) [XIV-12], the IC50 is less than 500 nM.

(Values after patent US20210139484A1, “DIHYDROISOQUINOLINE-2(1H)-CARBOXAMIDE AND RELATED COMPOUNDS AND THEIR USE IN TREATING MEDICAL CONDITIONS” (GOSSAMER BIO SERVICES, INC., priority 2018, published 2021).)
